Data: patent US20220281848A1, “PYRAZOLE-SUBSTITUTED PYRROLIDINONES AS HERBICIDES” (FMC Corporation, priority 2019, published 2022)

Legend:
Assay type in all cases: in vivo
wheat = experiment: Test D pre-emergence, wheat seed treated with a herbicide safener; conditions: 100=total damage, 0=no damage
Method in brief: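 Herbicidal injury on safener-protected cereals: application timings were one day after sowing for pre-emergence and about 12 days of cultivation for post-emergence. Assessment came 20 DAA or 15 d later respectively, on a scale where 100 meant total damage.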

[1] = tested on: velvetleaf (Abutilon theophrasti, ABUTH); experiment: Test A pre-emergence, velvetleaf; conditions: after 13 d
Method in brief: (§1)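 Each compound is applied pre-emergence at 15.625, 62.5 or 250 g/ha, one day after seeds are sown in standard soil. Plants are then grown in a glasshouse at 24/16° C. with 14 h light and 65% humidity, and injury is scored 0–100 at 13 d.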

plants = experiment: Test D post-emergence, other plants of Tables D2 and D4; conditions: for ALOMY damage rating (100=total damage to plant; 0=no damage to plant) / AVEFA damage rating (100=total damage to plant; 0=no damage to plant) / BEAVA damage rating (100=total damage to plant; 0=no damage to plant) / BROTE damage rating (100=total damage to plant; 0=no damage to plant) / BRSNN damage rating (100=total damage to plant; 0=no damage to plant) / CHEAL damage rating (100=total damage to plant; 0=no damage to plant) / GALAP damage rating (100=total damage to plant; 0=no damage to plant) / HORVW damage rating (100=total damage to plant; 0=no damage to plant) / KCHSC damage rating (100=total damage to plant; 0=no damage to plant) / LOLPE damage rating (100=total damage to plant; 0=no damage to plant) / POAAN damage rating (100=total damage to plant; 0=no damage to plant) / POLCO damage rating (100=total damage to plant; 0=no damage to plant) / SINAR damage rating (100=total damage to plant; 0=no damage to plant) / STEME damage rating (100=total damage to plant; 0=no damage to plant) / VERPE damage rating (100=total damage to plant; 0=no damage to plant): "Cereals" Postemergent, evaluated after 15 d; for damage to plant (100=total damage to plant; 0=no damage to plant), ABUTH / damage to plant (100=total damage to plant; 0=no damage to plant), AMARE / damage to plant (100=total damage to plant; 0=no damage to plant), BIDPI / damage to plant (100=total damage to plant; 0=no damage to plant), BRAPL / damage to plant (100=total damage to plant; 0=no damage to plant), CYPES / damage to plant (100=total damage to plant; 0=no damage to plant), DIGSA / damage to plant (100=total damage to plant; 0=no damage to plant), ECHCG / damage to plant (100=total damage to plant; 0=no damage to plant), ELEIN / damage to plant (100=total damage to plant; 0=no damage to plant), EPHHL / damage to plant (100=total damage to plant; 0=no damage to plant), GLXMA / damage to plant (100=total damage to plant; 0=no damage to plant), IPOHE / damage to plant (100=total damage to plant; 0=no damage to plant), ORYSA / damage to plant (100=total damage to plant; 0=no damage to plant), PANMI / damage to plant (100=total damage to plant; 0=no damage to plant), SETFA / damage to plant (100=total damage to plant; 0=no damage to plant), SIDSP / damage to plant (100=total damage to plant; 0=no damage to plant), SORVU: post-emergence
Method in brief: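 Damage was rated visually from 0 (none) to 100 (total), at 20 DAA for pre-emergence and 15 d for post-emergence. Plants grew from safener-treated seed in a glasshouse at 24/18° C. or 20/16° C. day/night, 65% humidity, watered twice daily.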

[2] = tested on: redroot pigweed (Amaranthus retroflexus, AMARE); experiment: Test A pre-emergence, redroot pigweed; conditions: after 13 d
Method in brief: as §1

## CN1CC(c2cc(C(F)(F)F)n(C)n2)C(C(=O)Nc2cccc(F)c2F)C1=O (racemic) [Compound 3]
wheat; rate 15, 20 DAA
  damage to plant, TRZAW: 0
wheat; rate 30, 20 DAA
  damage to plant, TRZAW: 0
wheat; rate 60, 20 DAA
  damage to plant, TRZAW: 0
wheat; rate 130, 20 DAA
  damage to plant, TRZAW: 0
wheat; rate 250, 20 DAA
  damage to plant, TRZAW: 0
wheat; rate 500, 20 DAA
  damage to plant, TRZAW: 60
[1]; Pre-Emergence at 15.625 g/ha
  damage to plant (100=total damage; 0=no damage) ABUTH: 0
[1]; Pre-Emergence at 62.5 g/ha
  damage to plant (100=total damage; 0=no damage) ABUTH: 0
[1]; Pre-Emergence at 250 g/ha
  damage to plant (100=total damage; 0=no damage) ABUTH: 10
plants; Rates 130
  ALOMY damage rating (100=total damage to plant; 0=no damage to plant): 0
  AVEFA damage rating (100=total damage to plant; 0=no damage to plant): 0
  BEAVA damage rating (100=total damage to plant; 0=no damage to plant): 0
  BROTE damage rating (100=total damage to plant; 0=no damage to plant): 0
  BRSNN damage rating (100=total damage to plant; 0=no damage to plant): 10
  CHEAL damage rating (100=total damage to plant; 0=no damage to plant): 0
  GALAP damage rating (100=total damage to plant; 0=no damage to plant): 0
  HORVW damage rating (100=total damage to plant; 0=no damage to plant): 0
  KCHSC damage rating (100=total damage to plant; 0=no damage to plant): 0
  LOLPE damage rating (100=total damage to plant; 0=no damage to plant): 0
  POAAN damage rating (100=total damage to plant; 0=no damage to plant): 0
  POLCO damage rating (100=total damage to plant; 0=no damage to plant): 0
  SINAR damage rating (100=total damage to plant; 0=no damage to plant): 0
  STEME damage rating (100=total damage to plant; 0=no damage to plant): 0
  VERPE damage rating (100=total damage to plant; 0=no damage to plant): 0
plants; Rates 250
  ALOMY damage rating (100=total damage to plant; 0=no damage to plant): 0
  AVEFA damage rating (100=total damage to plant; 0=no damage to plant): 0
  BEAVA damage rating (100=total damage to plant; 0=no damage to plant): 10
  BROTE damage rating (100=total damage to plant; 0=no damage to plant): 0
  BRSNN damage rating (100=total damage to plant; 0=no damage to plant): 10
  CHEAL damage rating (100=total damage to plant; 0=no damage to plant): 0
  GALAP damage rating (100=total damage to plant; 0=no damage to plant): 0
  HORVW damage rating (100=total damage to plant; 0=no damage to plant): 0
  KCHSC damage rating (100=total damage to plant; 0=no damage to plant): 0
  LOLPE damage rating (100=total damage to plant; 0=no damage to plant): 0
  POAAN damage rating (100=total damage to plant; 0=no damage to plant): 20
  POLCO damage rating (100=total damage to plant; 0=no damage to plant): 0
  SINAR damage rating (100=total damage to plant; 0=no damage to plant): 0
  STEME damage rating (100=total damage to plant; 0=no damage to plant): 0
  VERPE damage rating (100=total damage to plant; 0=no damage to plant): 0
plants; Rates 500
  ALOMY damage rating (100=total damage to plant; 0=no damage to plant): 20
  AVEFA damage rating (100=total damage to plant; 0=no damage to plant): 30
  BEAVA damage rating (100=total damage to plant; 0=no damage to plant): 10
  BROTE damage rating (100=total damage to plant; 0=no damage to plant): 0
  BRSNN damage rating (100=total damage to plant; 0=no damage to plant): 0
  CHEAL damage rating (100=total damage to plant; 0=no damage to plant): 0
  GALAP damage rating (100=total damage to plant; 0=no damage to plant): 0
  HORVW damage rating (100=total damage to plant; 0=no damage to plant): 30
  KCHSC damage rating (100=total damage to plant; 0=no damage to plant): 0
  LOLPE damage rating (100=total damage to plant; 0=no damage to plant): 0
  POAAN damage rating (100=total damage to plant; 0=no damage to plant): 50
  POLCO damage rating (100=total damage to plant; 0=no damage to plant): 0
  SINAR damage rating (100=total damage to plant; 0=no damage to plant): 10
  STEME damage rating (100=total damage to plant; 0=no damage to plant): 10
  VERPE damage rating (100=total damage to plant; 0=no damage to plant): 60
plants; rate 130, evaluated after 15 d
  damage to plant (100=total damage to plant; 0=no damage to plant), ABUTH: 0
  damage to plant (100=total damage to plant; 0=no damage to plant), AMARE: 0
  damage to plant (100=total damage to plant; 0=no damage to plant), BIDPI: 0
  damage to plant (100=total damage to plant; 0=no damage to plant), BRAPL: 40
  damage to plant (100=total damage to plant; 0=no damage to plant), CYPES: 0
  damage to plant (100=total damage to plant; 0=no damage to plant), DIGSA: 0
  damage to plant (100=total damage to plant; 0=no damage to plant), ECHCG: 40
  damage to plant (100=total damage to plant; 0=no damage to plant), ELEIN: 0
  damage to plant (100=total damage to plant; 0=no damage to plant), EPHHL: 0
  damage to plant (100=total damage to plant; 0=no damage to plant), GLXMA: 10
  damage to plant (100=total damage to plant; 0=no damage to plant), IPOHE: 0
  damage to plant (100=total damage to plant; 0=no damage to plant), ORYSA: 0
  damage to plant (100=total damage to plant; 0=no damage to plant), PANMI: 0
  damage to plant (100=total damage to plant; 0=no damage to plant), SETFA: 0
  damage to plant (100=total damage to plant; 0=no damage to plant), SIDSP: 0
  damage to plant (100=total damage to plant; 0=no damage to plant), SORVU: 0
plants; rate 250, evaluated after 15 d
  damage to plant (100=total damage to plant; 0=no damage to plant), ABUTH: 0
  damage to plant (100=total damage to plant; 0=no damage to plant), AMARE: 0
  damage to plant (100=total damage to plant; 0=no damage to plant), BIDPI: 0
  damage to plant (100=total damage to plant; 0=no damage to plant), BRAPL: 60
  damage to plant (100=total damage to plant; 0=no damage to plant), CYPES: 0
  damage to plant (100=total damage to plant; 0=no damage to plant), DIGSA: 10
  damage to plant (100=total damage to plant; 0=no damage to plant), ECHCG: 60
  damage to plant (100=total damage to plant; 0=no damage to plant), ELEIN: 0
  damage to plant (100=total damage to plant; 0=no damage to plant), EPHHL: 0
  damage to plant (100=total damage to plant; 0=no damage to plant), GLXMA: 10
  damage to plant (100=total damage to plant; 0=no damage to plant), IPOHE: 0
  damage to plant (100=total damage to plant; 0=no damage to plant), ORYSA: 0
  damage to plant (100=total damage to plant; 0=no damage to plant), PANMI: 0
  damage to plant (100=total damage to plant; 0=no damage to plant), SETFA: 0
  damage to plant (100=total damage to plant; 0=no damage to plant), SIDSP: 0
  damage to plant (100=total damage to plant; 0=no damage to plant), SORVU: 0
plants; rate 500, evaluated after 15 d
  damage to plant (100=total damage to plant; 0=no damage to plant), ABUTH: 0
  damage to plant (100=total damage to plant; 0=no damage to plant), AMARE: 10
  damage to plant (100=total damage to plant; 0=no damage to plant), BIDPI: 0
  damage to plant (100=total damage to plant; 0=no damage to plant), BRAPL: 70
  damage to plant (100=total damage to plant; 0=no damage to plant), CYPES: 10
  damage to plant (100=total damage to plant; 0=no damage to plant), DIGSA: 60
  damage to plant (100=total damage to plant; 0=no damage to plant), ECHCG: 80
  damage to plant (100=total damage to plant; 0=no damage to plant), ELEIN: 0
  damage to plant (100=total damage to plant; 0=no damage to plant), EPHHL: 0
  damage to plant (100=total damage to plant; 0=no damage to plant), GLXMA: 20
  damage to plant (100=total damage to plant; 0=no damage to plant), IPOHE: 0
  damage to plant (100=total damage to plant; 0=no damage to plant), ORYSA: 20
  damage to plant (100=total damage to plant; 0=no damage to plant), PANMI: 0
  damage to plant (100=total damage to plant; 0=no damage to plant), SETFA: 60
  damage to plant (100=total damage to plant; 0=no damage to plant), SIDSP: 0
  damage to plant (100=total damage to plant; 0=no damage to plant), SORVU: 0
[2]; Pre-Emergence at 15.625 g/ha
  damage to plant (100=total damage; 0=no damage) AMARE: 20
[2]; Pre-Emergence at 62.5 g/ha
  damage to plant (100=total damage; 0=no damage) AMARE: 20
[2]; Pre-Emergence at 250 g/ha
  damage to plant (100=total damage; 0=no damage) AMARE: 70
